The source of these data is US20150004697A1, “METHOD FOR PRODUCING MULTIPOLAR CELL” (TOAGOSEI CO., LTD., priority 2011, published 2015).

Holding throughout (assay type): cell-based
In experiment [1] the test system is human alveolar basal epithelial adenocarcinoma cells, A549. Description: Multipolarity-inducing activity assay 3 (A549 cells synchronized in G2 phase (or M phase)). The note with it: peptide 10 μM; for Multipolar level (%): 100 M-phase cells; for fluorescence microscope observation of centrosomes and multipolar spindles: DAPI, anti-tubulin and anti-centrin antibody. The protocol:
Some of the sample peptides obtained in Example 1 were tested for multipolarity-inducing activity against target cultured tumor cells. Details of the assay are as described below. As the tumor cells tested, cells forming a […] (human alveolar basal epithelial adenocarcinoma cells, A549) were used. The cell line was cultured in the same manner as Example 2 described above. The resulting cultured tumor cells were synchronized in the G2 phase (or M phase) in the same manner as Example 3 described above. Similarly to Examples 2 and 3 described above (although the number of M-phase cells was 100), the presence of multipolarity was observed by immunofluorescence under fluorescence microscope. In addition, using centrin-2 as a marker for centrosomes (centrioles), the cells were tested for the presence of centrin-2 (i.e. the presence of centrosomes) by immunofluorescence with an anti-centrin-2 antibody (primary antibody) to identify the centrin-2 and a fluorescent dye-labeled secondary antibody to identify the primary antibody.

In experiment [2] the test system is HeLa cell line (HeLa S3). The experiment can be described thus: Multipolarity-inducing activity assay 2 (cells synchronized in G2 phase (or M phase) by nocodazole). The following applies: for Multipolar level (%): peptide 10 μM for 4 hours with nocodazole, then 2 hours without, % of M-phase cells; for Multipolar level (%) / Number of multipolar cells: HeLa S3 synchronized in G2 phase (M phase); for Number of multipolar cells / fluorescence microscope observation of centrosomes and multipolar spindles: peptide 10 μM; for Number of multipolar cells: count among 75 M-phase cells; for fluorescence microscope observation of centrosomes and multipolar spindles: HeLa synchronized in G2 phase (or M phase) by nocodazole, DAPI and anti-tubulin antibody. The protocol:
The same sample peptides as those used in Example 2 above were used and tested for multipolarity-inducing activity against cultured tumor cells synchronized in the G2 phase (or M phase). Details of the assay are as described below.
As the tumor cells tested, a HeLa cell line (HeLa S3) was used. The cell line was cultured under the same conditions as Example 2 and seeded at about 3×10^4 cells per well in an 8-well slide glass. Thymidine was added to the culture medium to a final concentration of 2.5 mM. Incubation was carried out at 37° C. under 5% CO2 for 18 hours. The culture medium was exchanged to remove thymidine and incubation was carried out for 6 more hours. Subsequently, nocodazole was added to a final concentration of 0.1 μg/mL and incubation was carried out for 16 hours. By such addition of nocodazole, the cells being cultured were synchronized in the G2 phase (M phase) of the cell cycle.
After the 16 hours of incubation, without exchanging the culture medium (i.e. with nocodazole being contained), one of the sample peptides was added to each well to a peptide concentration in the well of 10 μM and incubation was carried out for 4 hours. Subsequently, the culture medium was exchanged and incubation was continued for 2 more hours without nocodazole or the sample peptide.
After the 2 hours of incubation, in the same manner as Example 2, the presence of multipolarity was observed by immunofluorescence under fluorescence microscope.

Experiment [3] deals with HeLa cell line (HeLa S3). The experiment can be described thus: Multipolarity-inducing activity assay 1 (cells synchronized in G1 phase by double thymidine block). The note with it: peptide 10 μM, 6 hours of incubation; for Number of multipolar cells: HeLa S3 synchronized in G1 phase, count among the M-phase cells observed. The method, then: Some of the sample peptides obtained in Example 1 were tested for multipolarity-inducing activity against target cultured tumor cells. Details of the assay are as described below.
As the tumor cells tested, a HeLa cell line (HeLa S3) was used. The cell line was cultured beforehand in a DMEM medium (i.e. Dulbecco MEM medium (DMEM medium, a Gibco product) containing 10% fetal bovine serum (FBS, a Gibco product), 2 mM of L-glutamine, 50 unit/mL of penicillin, and 50 μg/mL of streptomycin), and seeded at about 3×10^4 cells per well in an 8-well slide glass. Thymidine was added to the culture medium to a final concentration of 2.5 mM. Incubation was carried out at 37° C. under 5% CO2 for 16 hours. The culture medium was exchanged to remove thymidine and incubation was carried out for 8 more hours. Subsequently, thymidine was added again to a final concentration of 2.5 mM and incubation was carried out for 16 hours.
By such double thymidine block, the cells being cultured were synchronized in the G1 phase of the cell cycle. After such synchronization treatment, the culture medium was exchanged to remove thymidine and incubation was carried out for 2 more hours. Subsequently, one of the sample peptides was added to each well. In this example, one of Samples 1, 4, 8, 9, 12 and 14 was added to a peptide concentration in the well of 10 μM.
After a sample peptide was added as described above, the 8-well slid glass was incubated under the aforementioned conditions for 6 hours.
After 6 hours of incubation, the presence of multipolarity was observed by immunofluorescence under fluorescence microscope. In particular, after 6 hours of incubation following the addition of a sample peptide, the cultured cells were subjected to nuclear staining with DAPI (4′,6-diamidino-2-phenylindole), and using α-tubulin as a marker for spindles, the cells were tested for the presence of tubulin (i.e., the presence of spindles) by immunofluorescence with an anti-tubulin antibody (primary antibody) to identify the tubulin and a fluorescent dye (ALEXA FLUOR(registered trademark) 555)-labeled secondary antibody to identify the primary antibody.

For CEISAKRTC [Sample 7], the “Multipolar level (%)” value in experiment [1] was found to be 36%.
Take CGHRPYQYC [Sample 4]: the “Multipolar level (%)” value in experiment [1] was determined as 36%; in experiment [2] it was 62.7%. For the same sequence, the “Number of multipolar cells” value was found to be 47 in experiment [2] and 6 in experiment [3].
Consider CHILHAQAC [Sample 8], for which the “Multipolar level (%)” value is recorded as 36% in experiment [1] and 68.0% in experiment [2]. For the same sequence, the “Number of multipolar cells” value in experiment [2] stood at 51; in experiment [3], 11.
For CLAPSPSKC [Sample 2], in experiment [1], the “Multipolar level (%)” value came to 38%.
As for “CLAPSPSKCKKRFLRKNDRKKR (CLAPSPSKCKKRTLRKNDRKKR) [Sample 14]”, the “Multipolar level (%)” value in experiment [1] turned out to be 38%; in experiment [2], 61.3%. The entries for the “Number of multipolar cells” value in experiment [2] and in experiment [3] were 46 and 10, respectively.
Regarding CLTKSYTSC [Sample 12], in experiment [2], the “Multipolar level (%)” value is reported as 64.0%; the “Number of multipolar cells” value is 48; the “fluorescence microscope observation of centrosomes and multipolar spindles” value (“fluorescence microscope observation” for short) is listed as 3 or more centrosomes formed in many cells. In addition, the “Number of multipolar cells” value in experiment [3] came to 13.
Regarding CPRPPSLEC [Sample 9], in experiment [2], the “Multipolar level (%)” value is given as 73.3%; the “Number of multipolar cells” value was 55; the “fluorescence microscope observation” value was 3 or more centrosomes formed in many cells and a cell with a particularly high degree of multipolarity. Further, the “Number of multipolar cells” value in experiment [3] was determined as 19.
On to CSSATGKSC [Sample 1], for which the “Multipolar level (%)” value in experiment [2] was found to be 62.7%; in experiment [3] (HeLa S3 synchronized in G1 phase (double thymidine block), % multipolar cells relative to M-phase cells), 8.3%. For the same sequence, the “Number of multipolar cells” value in experiment [2] was found to be 47; in experiment [3], 7.
Take CSYEKRPMC [Sample 11]: in experiment [1], the “fluorescence microscope observation” value is given as 3 or more (typically 4 or more, e.g. 8 or more) centrosomes formed in many cells.
Consider CTGHWASEC [Sample 10], for which the “Multipolar level (%)” value in experiment [1] was 31%.
For the sequence CTLNSHSNC [Sample 6], in experiment [1], the “Multipolar level (%)” value was found to be 30%; the “fluorescence microscope observation” value is given as 3 or more (typically 4 or more, e.g. 8 or more) centrosomes formed in many cells.
